Bridges are numbered along the chain shown (N, C = ends). Where no end group is shown, it is not given here.
Columns and labels:
V2R = V2R (Homo sapiens, UniProt P30518); settings: vaptans, background; cited from earlier work
[1] = target: vasopressin V2 receptor subtype (V2R) (Homo sapiens, UniProt P30518); test: 3H-AVP competition binding on V2R membranes; settings: for Ki: Ki (nM ± SEM), binding affinity of the ligands for V2R, 3H-AVP competition, mean ± SEM; for V2R inhibition, 3H-AVP binding (FIG. 15): compared with U-Da2a
Protocol: Reaction mixtures contained 50 mM Tris-HCl, pH 7.4, 10 mM MgCl2 and 1 g/L BSA in a final volume of 100 μL. Plates were incubated for 3 h at room temperature. Binding reactions were stopped by filtration through a GF/C filter pre-soaked in 0.5% polyethyleneimine on a cell harvester ([sequence], Courtaboeuf, France) and plates were dried. […] A one-site inhibition mass action curve was fitted to inhibition binding data using Kaleidagraph (SYNERGY SOFTWARE, Reading, Pa., USA).

**Q.** Which V2/V1a selectivity index (V2R) does the source give for `Cc1nc2c([nH]1)-c1ccccc1N(C(=O)c1ccc(NC(=O)c3ccccc3-c3ccccc3)cc1)CC2` [Conivaptan] here?
**A.** 0.15

**Q.** With `CCOc1ccc2c(c1)C1(CCC(OCCN3CCOCC3)CC1)C(=O)N2S(=O)(=O)c1ccc(C(=O)NC(C)(C)C)cc1OC` (stereo not shown) [Satavaptan] as the molecule, how does the V2/V1a selectivity index (V2R) read?
**A.** 112

**Q.** With “CNLPVKPGPCNGFFSAFYYSQKTNKCHSFTYGGCKGNANRFSTIEKCRRTCVG (disulfide 1-51, 10-34, 26-47) [U-Da2a-delta4 N-ter]” as the molecule, how does the Ki [1] read?
**A.** 1.57 ± 1.2 nM

**Q.** With “DTx-E-R55 (LQHRTFCKLPAEPGPCKASIPAFYYNWAAKKCQLFHYGGCKGNANRFSTIEKCRRACVG; listed as Dendroaspis polylepis) [reference compound]” as the molecule, how does the “V2R inhibition, 3H-AVP binding (FIG. 15)” value [1] read?
**A.** not able to block V2R

**Q.** With “Dendrotoxin-K [DTx-K, reference compound]” as the molecule, how does the “V2R inhibition, 3H-AVP binding (FIG. 15)” value [1] read?
**A.** no V2R inhibition

**Q.** Which Ki [1] does the source give for “RPKFCNLPVKPGPCNGFFSAFYYSQKTNKCHSFTYGGCKGNANRFSTIEKCRRTCVG (disulfide 5-55, 14-38, 30-51) [U-Da2a-S3K]” here?
**A.** 1.29 ± 0.34 nM

**Q.** Which Ki [1] does the source give for “SFCNLPVKPGPCNGFFSAFYYSQKTNKCHSFTYGGCKGNANRFSTIEKCRRTC (disulfide 3-53, 12-36, 28-49) [U-Da2a-delta2 N-ter/delta2 C-ter]” here?
**A.** 3.23 ± 2.31 nM
